Entries after “also recorded” stand apart in the source; their conditions may differ.
What was measured:
Format in all cases: cell-based, mouse
[1] = system: MG6 cells; assay: Phagocytosis of Hilite-555 labelled Aβ42 by MG6 cells; details: 24 h inhibitor, Hilite-555 labelled Aβ42 500 ng/mL; listed as Pyk2 inhibitor
Experimental: FIGS. 5A-5D. Characteristics of Pyk2 inhibition on phagocytotic activity in microglia. FIG. 5A: Immunofluorescent imaging depicting phagocytosis of pHrodo Red E. coli BioParticles by MG6 cells after exposure to Pyk2 inhibitors. MG6 cells were either untreated (left) or treated with 1000 nM Pyk2 inhibitor treatment for 24 hours (right). Immunofluorescent images were obtained via confocal microscopy (×600). MG6 cells were fixed and stained with phalloidin-AlexaFluor488 to visualize actin, and with DAPI to visualize nuclei (encircled). Scale bar is 20 μm. […] FIG. 5B: Immunofluorescent imaging depicting phagocytosis of pHrodo Red E. coli BioParticles by mononucleated and multinucleated MG6 cells after exposure to Pyk2 inhibitors. MG6 cells were treated and imaged as in FIG. 5A. After obtaining three-dimensional images, BioParticles are quantified by a spot analysis using IMARIS software (bottom figures). FIG. 5C: Quantification of spot analysis in FIG. 5B. The output of IMARIS spot analysis was analyzed using one-way ANOVA. […] FIG. 5D: Phagocytotic activity for Aβ in MG6 cells. Immunostaining for Iba1 and Aβ in control and Pyk2 inhibitor treated group. MG6 cells were treated with Pyk2 inhibitor or vehicle for 24 hours and then Hilite-555 labelled Aβ42 was added for 24 hours. Data are representative images of four wells from three independent experiments. […]

[2] = system: Raw264.7; assay: RANKL-induced osteoclast differentiation of Raw264.7 cells (TRAP activity and staining); details: for TRAP activity: listed as Pyk2 inhibitor
Experimental: FIGS. 8A-8F. Effect of Pyk2 inhibition on RANKL induced osteoclast differentiation. FIG. 8A: Schematic depicting the experimental design for testing the effect of Pyk2 inhibition on RANKL-induced osteoclast differentiation. On day 1, Raw264.7 macrophages are pretreated with Pyk2 inhibitor and then treated on day 2 with fresh culture medium comprising 100 ng/mL RANKL to stimulate differentiation to osteoclasts. The quantity of mature, differentiated osteoclasts is measured by tartrate-resistant acid […] (TRAP) activity on day 6. FIG. 8B: TRAP activity of mature, differentiated osteoclasts treated as described in FIG. 8A. […] FIG. 8C: Phase-contrast microscope images of TRAP-stained osteoclasts, treated as described in FIG. 8A, at ×20 magnification. FIG. 8D: Schematic depicting the experimental design for testing the effect of Pyk2 inhibition on RANKL-induced osteoclast differentiation. On day 2, Raw264.7 macrophages are treated with fresh culture medium comprising 100 ng/mL RANKL to stimulate differentiation to osteoclasts, then are subsequently treated on day 3 with Pyk2 inhibitor. FIG. 8E: TRAP activity of mature, differentiated osteoclasts treated as described in FIG. 8D. […] FIG. 8F: Phase-contrast microscope images of TRAP-stained osteoclasts, treated as described in FIG. 8D, at ×20 magnification.
To explore this question, an Abelson leukemia virus transformed monocyte/macrophage-like cell line derived from BALB/c mice, Raw264.7, was used. To induce differentiation to osteoclasts, Raw264.7 cells were treated with receptor activator of nuclear factor kappa-B ligand (RANKL), also known as osteoclast differentiation factor (ODF). Raw264.7 cells and differentiated osteoclasts were treated with Pyk2 inhibitor, as in Example 2.
Raw264.7 cells were cultured and treated with Pyk2 inhibitors after 24 hours, then differentiated into osteoclasts after 24 hours of Pyk2 inhibitor treatment (FIG. 8A). Four days after differentiation into osteoclasts, the cells were then assessed for tartrate-resistant acid phosphatase (TRAP) activity and presence, as TRAP is a biomarker expressed by mature, differentiated osteoclasts, but not undifferentiated progenitor cells.
Therefore, the effect of Pyk2 inhibition was also assessed by culturing RAW264.7 cells, differentiating into osteoclasts after 2 days, the treating with Pyk2 inhibitor for 24 hours, 1 day after differentiating (FIG. 8D). […] Therefore, Pyk2 inhibition could ultimately result in an increase in bone mass.

[3] = system: MG6 cells; assay: Phagocytosis of pHrodo Red E. coli BioParticles by sorted mono-/multinuclear MG6 cells (fluorescence plate reader)
Experimental: FIGS. 7A-7D. Pyk2 inhibition promotes the phagocytotic activity and inflammatory responses in microglia. FIG. 7A: Quantification of the effect of Pyk2 inhibitor treatment on proliferation of mononucleated and multinucleated MG6 cells. MG6 cells were pretreated with 1000 nM Pyk2 inhibitor for 24 hours and mono-/multi-nuclear cells were isolated and collected by fluorescent activated cell sorting. […] There is no difference in proliferation of mononuclear cells after Pyk2 inhibitor treatment compared to untreated control cells. FIG. 7B: Fluorescent imaging depicting the effect of Pyk2 inhibitor on phagocytosis of mononucleated and multinucleated MG6 cells. MG6 cells were pretreated with 1000 nM Pyk2 inhibitor for 24 hours and mono-/multi-nuclear cells were isolated and collected by fluorescent activated cell sorting. After sorting, cells were treated with pHrodo Red E. coli BioParticles. Representative images are shown at ×20 magnification level. FIG. 7C: Quantification of phagocytosis of mononucleated and multinucleated MG6 cells over time. After Pyk2 inhibitor treatment and cell sorting, MG6 cells were treated with pHrodo Red E. coli BioParticles for the indicated time. Fluorescence intensity was measured by fluorescence microplate reader at excitation/emission wavelengths of 560/580 nm. […] FIG. 7D: Quantification of the effect of Pyk2 inhibitor treatment on cytokine/chemokine levels of mononucleated and multinucleated MG6 cells. The relative mRNA levels of IL-6, IL-1β, IL-10, and TGF-β were measured by a real-time PCR (qPCR). Measured mRNA transcript levels are reported as the mean level±standard deviation (n=3; *: p-value<0.05; **: p-value <0.01; ***: p-value <0.005; ****: p-value <0.001; and *****: p-value <0.0005).
Next, the differences in the activity of mononucleated and multinucleated microglial cells in response to Pyk2 inhibition was further assessed. […] Mononucleated and multinucleated MG6 cells also differed regarding the cytokines and chemokines produced by each (FIG. 7D).

[4] = 4 and 5 hours after pHrodo treatment

With `CN(c1ccccc1CNc1nc(Nc2ccc3c(c2)CC(=O)N3)ncc1C(F)(F)F)S(C)(=O)=O` [PF-431396] the “phagocytosis of Aβ42” value [1] was “increased phagocytosis; also recorded: significantly higher”, the TRAP activity ([2]; 1000 nM for 24 hours, 1 day after RANKL) was “statistically significant reduction; also recorded: significantly reduced” and the TRAP staining ([2]; inhibitor for 24 hours, 1 day after RANKL) was “apparent reduction”. For the same compound, the TRAP activity ([2]; inhibitor pretreatment (up to 1000 nM) before RANKL) was “not statistically significant; also recorded: no significant differences”, the TRAP staining ([2]; inhibitor pretreatment before RANKL) was “did not reveal any obvious difference” and the “phagocytosis of pHrodo BioParticles, sorted mononucleated cells vs control” value ([3]; 1000 nM pretreatment) was “did not”. The “phagocytosis of pHrodo BioParticles, sorted multinucleated cells vs control” value ([3]; 1000 nM pretreatment) was “increase in phagocytosis”, the “phagocytic activity, Pyk2-mono vs control” value [3, 4] was “do not show significant difference” and the “phagocytic activity, Pyk2-multi vs Pyk2-mono and controls” value [3, 4] was “higher phagocytic activity”. For the same compound, the “phagocytic activity, sorted mononuclear cells (Pyk2-mono)” value ([3]; 3 hours after pHrodo treatment) was “increased fluorescence signal” and the “phagocytic activity, sorted multinuclear cells (Pyk2-multi)” value ([3]; 3 hours after pHrodo treatment, listed as Pyk2 inhibitor) was “statistically significant increase; also recorded: increased fluorescence signal”.

Reference: US20250186439A1, “PYK2 INHIBITION MODULATES IMMUNE CELL FUNCTION” (The Children's Medical Center Corporation, priority 2022, published 2025)
